Measured values from US8592466B2, “Methods for treating conditions caused by higher-than-normal dopaminergic activity in basal ganglia” (Neuropill, Inc., priority 2008, dated 2013).

Experiment: Phase I cocaine interaction study: heart rate and blood pressure
Conditions: cocaine 20 mg and 40 mg i.v., most P-values<0.05

SMILES: COC(=O)[C@H]1[C@@H](OC(=O)c2ccccc2)C[C@@H]2CC[C@H]1N2C [cocaine, reference compound]
- HR/SBP/DBP after cocaine infusion: significant elevation
